Measured values from a melting point compilation (Tetko et al.; mined from patent text by program, amines drawn as free bases though some values may be those of a salt).

Row | melting point [°C] | SMILES
1 | 250 to 252 | CCOC(=O)c1cnc2c3c(ccc2c1)C(=O)CC=N3
2 | 120 to 122 | CCS(=O)(=O)Nc1cc(-n2nc3ccc(Cl)cn3c2=O)c(F)cc1Cl
3 | 134 to 135 | COC(=O)C(=Cc1ccc(OCc2ccccc2)cc1)C(=O)OC
4 | 55 to 58 | O=S(=O)(CCCCCl)c1ccccc1
5 | > 290 | Nc1cc(NC(=O)Nc2ccccc2)ccn1
6 | 93 to 95 | CCOc1ccccc1OCC(O)CCN1C(=O)c2ccccc2C1=O (centres undefined)
7 | 94 to 96 | C(#Cc1cnc(-c2cccs2)s1)c1ccccc1
8 | 139 to 140 | COc1cc2c(cc1O)CCN(Cc1cccc(Oc3ccccc3)c1)C2
9 | 250 to 251 | Cn1cnc(COc2nn3c(-c4cccc(F)c4)nnc3cc2-c2ccccc2)n1
10 | 185 to 187 | CCOc1nc2cc(N)ccc2c(=O)o1
11 | 113 to 115 | O=C1Nc2ccccc2C1CCCCN1CCN(c2ccc(F)cc2)CC1 (centres undefined)
12 | 196 to 198 | CC(C)n1nc(-c2c(NCc3ccccn3)nc(N)nc2-c2ccccc2)ccc1=O
13 | 53 to 54 | COc1c(C)c(C)c(OC)c(Cc2ccccc2)c1C
14 | 139 to 141 | N=C(NCc1ccccc1)NN=Cc1ccc(Cl)cc1Cl
15 | 87 to 89 | Cc1cn(C(C)C(=O)N(C)C)nc1-c1ccccc1 (centres undefined)
16 | 128 to 130 | CC(=O)N[C@@H](CS)C(=O)NCCSC(=O)c1ccccc1
17 | 205 to 207 | CC(C)c1ccc2c(c1)OC1(O)c3cccc(O)c3C(=O)C21O (centres undefined)
18 | 178 to 183 | Clc1ccc(-c2nc3cc(Cl)ccc3o2)cc1
19 | > 350 | O=c1cc2c3ccccc3sn2c2ccc(Cl)cc12

Row | melting point [°C] | SMILES
20 | > 300 | Cc1cc2n(C)c3cc(Cl)ncc3c(=O)n2n1
21 | 250 to 252 | Cc1ccc(Cl)c(Nc2ccccc2-c2n[nH]c(=S)s2)c1Cl
22 | 167 to 169 | CCc1noc2cc(-c3ccccc3)n(C)c(=O)c12
23 | 218 to 219 | CC(C)Cn1c(CNC(=O)OC(C)(C)C)c(-c2ccccc2)c2cc(O)ccc2c1=O
24 | 55 to 57 | CCOP(=O)(OCC)c1cccc(OCc2ccc3ccccc3c2)c1
25 | 131 | O=C(O)Cc1cc(C(=O)c2ccccc2)cc(Cl)c1O
26 | 85 | Cc1c(C(O)c2ccccc2)nc2n1CCc1ccccc1C2OC1CCN(C)CC1 (centres undefined)
27 | 217 to 218 | O=C1NC(=O)C2(c3ccccc3)CC1C2
28 | 200 | CN(c1ccnc(C(N)=O)c1)c1ccccc1C(=O)Nc1cc2ccccc2cn1
29 | 187 | Cc1ccc2nc(C)c(CCN3CCC(c4noc5cc(F)ccc45)CC3)c(=O)n2c1
30 | 120 to 123 | CC(C)(C)OC(=O)N1CCCC(c2ccc3c(c2)C2(CO3)C(=O)Nc3ccccc32)C1 (centres undefined)
31 | 128 to 148 | CCN1CC(CCN2CCOCC2)N(C)c2ccccc2C1=O (centres undefined)
32 | 164 to 167 | O=C(Cn1c2c(c(=O)n3nc(-c4ccccc4)cc13)CN(C1CCCCC1)C2=O)c1ccccc1
33 | 77.5 to 78.5 | COc1ccc(N)c(CCc2ccccn2)c1
34 | 201 to 204 | O=C1COc2ccc(Br)cc2N1O
35 | 250 | O=c1ccc(S(=O)(=O)c2[nH]c3ccccc3c2Cl)n[nH]1
36 | 154 to 155 | COC(=O)C(Cc1ccc(OCCN(C)c2nc3ccccc3o2)cc1)OCC(=O)O (centres undefined)
37 | 216 to 217 | Cc1ccccc1-c1c(C(=O)O)c(=O)oc2cc3c(cc12)CCCC3
38 | 235 to 238 | CCc1cccc(C)c1CNc1cc(C(=O)O)nc2c1nc(C)n2C

More lines, now with the values behind:

Row | SMILES | melting point [°C]
39 | O=[N+]([O-])C=C1CN=C(c2ccccc2F)c2cc(I)ccc2N1 | 214 to 216
40 | CC(=O)Nc1cccc(/C=C/C(=O)O)c1C | 265 to 267
41 | CCCCCCCCCCCCCCCCOC(=O)Cl | > 230
42 | CCCCCc1cc2c(nc(O)n2CC2CCN(C(=O)C3CC3)CC2)c(N)n1 | 205 to 207
43 | Cc1noc(CCCCCCCOc2ccc(C3=NCCO3)cc2)c1CCl | 103 to 104
44 | OC(CN1CCCCC1)c1cc(C(F)(F)F)nc2c(C(F)(F)F)cccc12 (centres undefined) | 130
45 | O=C(NC(=Cc1ccccc1)c1cccs1)C(F)(F)F | 158
46 | COc1ccc2c3c([nH]c2c1)C(=O)N=NC3=O | > 260
47 | CCCOc1ncc(S(C)(=O)=O)cc1-c1nc2c(CC)nn(C[C@@H]3CCCN3C(=O)OC(C)(C)C)c2c(=O)[nH]1 | 98 to 104
48 | COc1cc2cc(C(=O)OC(C)(C)C)c(N)cc2cc1O | 262 to 263
49 | O=C(O)C1Cc2ccccc2N1C(=O)CCSSCCC(=O)N1c2ccccc2CC1C(=O)O (centres undefined) | 213 to 216
50 | COc1cc2nc(-c3n[nH]cc3NC(=O)C3CC3)[nH]c2cc1Cl | 225 to 226
51 | CCSc1cc(S(N)(=O)=O)sc1SCC | 82 to 84
52 | O=C(Nc1ccc(C(=O)N2CCCCc3sccc32)cc1)c1ccc(Cl)c(Cl)c1 | 154 to 160
53 | CCCCCCC(Oc1ccc(C2=CCCCCCC2)cc1)C(=O)O (centres undefined) | 55 to 57
54 | COc1ccc(N=C(C#Cc2ccccc2)N2CCN(Cc3ccccc3)CC2)cc1 | 104
55 | O=C(CBr)c1cccc2nnsc12 | 155 to 157
56 | CCCN(CCC12CC3CC(CC(C3)C1)C2)C(=O)NCCCc1ccncc1 | 99 to 103
57 | Cc1nc(-n2cnn(CC3CC3(F)F)c2=O)sc1C(N)=O (centres undefined) | 273 to 275
58 | CN1C(=O)C(c2ccncc2)(c2ccc(OC(F)F)cc2)N=C1N (centres undefined) | 193 to 195
59 | Cc1cc(N)c(Cl)c(N)c1 | 114 to 116
60 | Cc1ccc(-n2cc(-c3cccn4nc(Nc5ccc(C6CCNCC6)cc5)nc34)cn2)cc1 | 216 to 218

Row | SMILES | melting point [°C]
61 | CCCCCN(CCC12CC3CC(CC(C3)C1)C2)C(=O)NCCNc1ccncc1 | 134
62 | O=C(O)c1ccc(NC(O)C(=O)c2ccc(OCC3CCCCC3)cc2)cc1 (centres undefined) | 188 to 190
63 | COc1cc(CO)cc(F)n1 | 46 to 49
64 | N#Cc1ccc2c(c1)CCN(C1CCC3(CC1)OCCO3)C2 | 127
65 | CCCCCCCCCCCCCCCCCC(=O)C(=O)OCC | 43 to 44
66 | CS(=O)(=O)NC(=O)C1(CCCCCCCCCCCCC2(C(N)=O)CC2)CC1 | 119 to 120
67 | COc1ccc2cc(S(=O)(=O)Nc3cccc(Cl)c3C)cc(S(=O)(=O)Nc3cccc(Cl)c3C)c2c1 | 166 to 168
68 | NC(=O)c1cc(O)c(O)cc1N | > 300
69 | O=c1n(-c2cc(OCCCl)c(Cl)cc2Cl)nc2n1CCCC2 | 148 to 150
70 | Cc1ccc(/C=C/c2nc(COc3ccc(CCCCn4ccnn4)cc3)co2)cc1 | 154 to 155
71 | CN1C(=O)Nc2ccc(Cl)cc2C1(C#CC1(C)CC1)C(F)(F)F (centres undefined) | 206 to 208
72 | Cc1c(N2CC[C@H](CNC3CC3)C2)c(F)cc2c(=O)c(C(=O)O)cn([C@@H]3C[C@@H]3F)c12 | 163 to 164
73 | c1ccc(Oc2cccc(Nc3nnc(Cc4ccncc4)c4ccccc34)c2)cc1 | 186 to 189
74 | CCCc1c(OCCCOc2cc(NC(=O)C(=O)O)c(C)cc2Cl)ccc(C(C)=O)c1O | 188 to 189
75 | NC(=O)c1n[nH]c2c(=O)[nH]c3cc(Cl)ccc3c(=O)c12 | 224 to 225
76 | COc1ccc(C=O)c2cc(C#N)oc12 | 170 to 178
77 | OC(c1cc(F)cc(F)c1)c1cc(F)cc(F)c1 | 62
78 | COc1ccc(C(C)=NOCc2ccc([N+](=O)[O-])cc2)cc1F | 67 to 68
79 | CCOP(=O)(Cc1cc(C)cc(C)n1)OCC | 109 to 112
80 | CC(=O)c1ccc2c(c1)OCC(=O)N2 | 197 to 198
81 | COC(=O)C(C)(C)S(=O)(=O)N1CCC(c2ccc(-n3ccc(OC)n3)c(C)c2)CC1 | 109 to 110
82 | CCc1c(-c2cnccn2)ssc1=S | 121

Row | SMILES | melting point [°C]
83 | CCC=C1Cc2c(c(C)c(C)c3oc(C(=O)O)cc23)C1=O | 301
84 | COc1nc(C)cnc1NS(=O)(=O)c1cccnc1-c1ccc(C(C)(C)C)cc1 | 150 to 151
85 | CCC1c2ccc(C#N)n2-c2ccc(F)cc2N1S(=O)(=O)c1ccc(O)c(C)c1 (centres undefined) | 192 to 194
86 | O=C1CCCC(=O)C1C(=O)c1ccccc1[N+](=O)[O-] | 132 to 135
87 | CCOC(=O)C1=C(COCC(C)(O)c2ncc[nH]2)NC(C)=C(C(=O)OC)C1c1cccc(Cl)c1Cl (centres undefined) | 183
88 | CCOCOc1ccc(-c2ccc(C(F)(F)F)cc2)cc1Sc1cc(-c2ccc(C(F)(F)F)cc2)ccc1OCOCC | 61 to 62
89 | COc1ccc(C(=O)CCC(=O)O)cc1NC(C)=O | 184 to 185
90 | Cc1cc2c(-c3cccc(/C=C/c4nnn[nH]4)c3)c(CC(=O)Nc3ccc(F)cc3C(F)(F)F)c(=O)oc2cc1Cl | 216 to 218
91 | CCCC(=O)c1cc(C(=O)O)c(N)cc1C | 184 to 186
92 | CCCCCCCCCCC=NNC(=N)N | 101
93 | CCOC(=O)CSCc1nc(NCc2ccc(OC)c(Cl)c2)c2c3c(sc2n1)CCCC3 | 158 to 160
94 | N#Cc1cc(F)c(NN=CC(=O)C(F)(F)F)nc1Cl | 174 to 176
95 | Cc1cc(N2CCCCCC2)c2ccc(NCc3ccc(C(F)(F)F)cc3)cc2n1 | 90 to 93
96 | Cn1nc(-c2cc(C(=O)O)c(Cl)cc2F)c(Cl)c1C(F)(F)F | 179 to 181
97 | CCN(c1ccc(C#N)cc1[N+](=O)[O-])S(=O)(=O)c1ccc(Cl)s1 | 102 to 103
98 | CC(=O)Nc1nc2c(Oc3cc(N4CCN([C@H](C)c5ccc(F)cc5)CC4)ncn3)cccc2s1 | 244 to 246
99 | N=C(N)COc1cccc(Cl)c1Cl | 104 to 108
100 | Cc1cc(-c2nnn(C)n2)cc(C)c1OCCCn1ncnc1C | 126 to 128
101 | CC(C)(C)c1cc(C=Nn2ccnc2N2CCOCC2)cc(C(C)(C)C)c1O | 185 to 187
102 | CCOC(=O)CC(=O)N(C)c1ccccc1[N+](=O)[O-] | 54 to 55
103 | CCCCC[C@H]1CC[C@H](CCC2CCC(c3ccc(O)cc3)(c3ccc(O)cc3)CC2)CC1 | 203 to 204
104 | Fc1ccc(-c2cn3c(n2)SCC3)cc1 | 116 to 118
